Experimental data published in ChEMBL document CHEMBL4422633, “Antioxidant-Inspired Drug Discovery: Antitumor Metabolite Is Formed in Situ from a Hydroxycinnamic Acid Derivative upon Free-Radical Scavenging” (J Med Chem, 2019).
Active and inactive are the calls of the source. The rule behind the calls is not given here.

Key:
[1] = Cytotoxicity against mouse L5178 cells assessed as reduction in cell viability after 72 hrs by MTT assay; format: functional, cell-based; conditions: L5178, 72 h
[2] = Cytotoxicity against mouse L5178B1 cells transfected with pHa MDR1/A retrovirus assessed as reduction in cell viability after 72 hrs by MTT assay; format: functional, cell-based; conditions: MDR1, 72 h
NCI-H460 [3] = test: Cytotoxicity against human NCI-H460 cells assessed as reduction in cell viability after 72 hrs by MTT assay; format: functional, cell-based; conditions: NCI-H460, 72 h
[4] = Cytotoxicity against human NCI-H460/R cells transfected with MDR assessed as reduction in cell viability after 72 hrs by MTT assay; format: functional, cell-based; conditions: NCI-H460, 72 h
A549 [5] = test: Cytotoxicity against human A549 cells assessed as reduction in cell viability after 72 hrs by MTT assay; format: functional, cell-based; conditions: A549, 72 h
NCI-H661 [6] = test: Cytotoxicity against human NCI-H661 cells assessed as reduction in cell viability after 72 hrs by MTT assay; format: functional, cell-based; conditions: NCI-H661, 72 h
HaCaT [7] = test: Cytotoxicity against human HaCaT cells assessed as reduction in cell viability after 72 hrs by MTT assay; format: cell-based
HeLa = test: Cytotoxicity against human HeLa cells assessed as reduction in cell viability after 72 hrs by MTT assay; format: functional, cell-based
NCI-H460 [8] = test: Induction of apoptosis in human NCI-H460 cells assessed as viable cells at 10 uM after 24 hrs by Annexin V/propidium iodide-staining based flow cytometry (reference value: 96.49 +/- 0.96%); format: functional; conditions: NCI-H460, 24 h, read-out: Activity
[9] = Induction of apoptosis in human NCI-H460/R cells transfected with MDR assessed as viable cells at 10 uM after 24 hrs by Annexin V/propidium iodide-staining based flow cytometry (reference value: 95.76 +/- 2.87%); format: functional; conditions: NCI-H460, 24 h, read-out: Activity
A549 [10] = test: Induction of apoptosis in human A549 cells assessed as viable cells at 10 uM after 24 hrs by Annexin V/propidium iodide-staining based flow cytometry (reference value: 96.45 +/- 2.89%); format: functional; conditions: A549, 24 h, read-out: Activity
NCI-H661 [11] = test: Induction of apoptosis in human NCI-H661 cells assessed as viable cells at 10 uM after 24 hrs by Annexin V/propidium iodide-staining based flow cytometry (reference value: 96.16 +/- 0.96%); format: functional; conditions: NCI-H661, 24 h, read-out: Activity
[12] = Induction of apoptosis in human HaCaT cells assessed as viable cells at 10 uM after 24 hrs by Annexin V/propidium iodide-staining based flow cytometry (reference value: 95.63 +/- 3.83%); format: cell-based; conditions: read-out: Activity
NCI-H460 [13] = test: Induction of apoptosis in human NCI-H460 cells assessed as early apoptotic cells at 10 uM after 24 hrs by Annexin V/propidium iodide-staining based flow cytometry (reference value: 0.45 +/- 0.01%); format: functional
[14] = Induction of apoptosis in human NCI-H460/R cells transfected with MDR assessed as early apoptotic cells at 10 uM after 24 hrs by Annexin V/propidium iodide-staining based flow cytometry (reference value: 0.22 +/- 0.01%); format: functional
A549 [15] = test: Induction of apoptosis in human A549 cells assessed as early apoptotic cells at 10 uM after 24 hrs by Annexin V/propidium iodide-staining based flow cytometry (reference value: 0.48 +/- 0.01%); format: functional
NCI-H661 [16] = test: Induction of apoptosis in human NCI-H661 cells assessed as early apoptotic cells at 10 uM after 24 hrs by Annexin V/propidium iodide-staining based flow cytometry (reference value: 0.31 +/- 0.01%); format: functional
HaCaT [17] = test: Induction of apoptosis in human HaCaT cells assessed as early apoptotic cells at 10 uM after 24 hrs by Annexin V/propidium iodide-staining based flow cytometry (reference value: 0.23 +/- 0.01%); format: cell-based
NCI-H460 [18] = test: Induction of apoptosis in human NCI-H460 cells assessed as late apoptotic cells at 10 uM after 24 hrs by Annexin V/propidium iodide-staining based flow cytometry (reference value: 0.93 +/- 0.04%); format: functional
[19] = Induction of apoptosis in human NCI-H460/R cells transfected with MDR assessed as late apoptotic cells at 10 uM after 24 hrs by Annexin V/propidium iodide-staining based flow cytometry (reference value: 0.84 +/- 0.01%); format: functional
A549 [20] = test: Induction of apoptosis in human A549 cells assessed as late apoptotic cells at 10 uM after 24 hrs by Annexin V/propidium iodide-staining based flow cytometry (reference value: 1.54 +/- 0.03%); format: functional
NCI-H661 [21] = test: Induction of apoptosis in human NCI-H661 cells assessed as late apoptotic cells at 10 uM after 24 hrs by Annexin V/propidium iodide-staining based flow cytometry (reference value: 0.95 +/- 0.03%); format: functional
HaCaT [22] = test: Induction of apoptosis in human HaCaT cells assessed as late apoptotic cells at 10 uM after 24 hrs by Annexin V/propidium iodide-staining based flow cytometry (reference value: 2.26 +/- 0.09%); format: cell-based
NCI-H460 [23] = test: Induction of apoptosis in human NCI-H460 cells assessed as necrotic cells at 10 uM after 24 hrs by Annexin V/propidium iodide-staining based flow cytometry (reference value: 2.13 +/- 0.02%); format: functional
[24] = Induction of apoptosis in human NCI-H460/R cells transfected with MDR assessed as necrotic cells at 10 uM after 24 hrs by Annexin V/propidium iodide-staining based flow cytometry (reference value: 3.17 +/- 0.13%); format: functional
A549 [25] = test: Induction of apoptosis in human A549 cells assessed as necrotic cells at 10 uM after 24 hrs by Annexin V/propidium iodide-staining based flow cytometry (reference value: 1.52 +/- 0.05%); format: functional
NCI-H661 [26] = test: Induction of apoptosis in human NCI-H661 cells assessed as necrotic cells at 10 uM after 24 hrs by Annexin V/propidium iodide-staining based flow cytometry (reference value: 2.58 +/- 0.05%); format: functional
HaCaT [27] = test: Induction of apoptosis in human HaCaT cells assessed as necrotic cells at 10 uM after 24 hrs by Annexin V/propidium iodide-staining based flow cytometry (reference value: 1.88 +/- 0.02%); format: cell-based
NCI-H460 [28] = test: DNA protective activity in human NCI-H460 cells assessed as reduction in H2AX expression at 10 uM after 24 hrs by alexa fluor 488-staining based flow cytometry; format: functional, cell-based
HaCaT [29] = test: DNA protective activity in human HaCaT cells assessed as reduction in H2AX expression at 10 uM after 24 hrs by alexa fluor 488-staining based flow cytometry; format: functional, cell-based
Homo sapiens [30] = organism: Homo sapiens; test: DNA protective activity in human NCI-H460/R cells transfected with MDR assessed as increase in H2AX expression at 10 uM after 24 hrs by alexa fluor 488-staining based flow cytometry; format: functional, cell-based
NCI-H460 [31] = test: Reduction in ROS generation in human NCI-H460 cells assessed as decrease in DHE positive cells at 10 uM after 24 hrs by DHE-staining based flow cytometry; format: functional, cell-based
A549 [32] = test: Reduction in ROS generation in human A549 cells assessed as decrease in DHE positive cells at 10 uM after 24 hrs by DHE-staining based flow cytometry; format: functional, cell-based
NCI-H661 [33] = test: Reduction in ROS generation in human NCI-H661 cells assessed as decrease in DHE positive cells at 10 uM after 24 hrs by DHE-staining based flow cytometry; format: functional, cell-based
Homo sapiens [34] = organism: Homo sapiens; test: Reduction in ROS generation in human NCI-H460/R cells transfected with MDR assessed as reduction in DHE positive cells at 10 uM after 24 hrs by DHE-staining based flow cytometry; format: functional, cell-based
HaCaT [35] = test: Reduction in ROS generation in human HaCaT cells assessed as decrease in DHE positive cells at 10 uM after 24 hrs by DHE-staining based flow cytometry; format: functional, cell-based
[36] = Antioxidant activity assessed as hydroxyl radical scavenging activity by measuring inhibition of damage to 2-deoxy-D-ribose after 3 mins by TBA-based Fenton reaction assay; format: functional

COC(=O)/C=C/c1cc(O)ccc1O
IC50 [1]: 5.23 µM | IC50 [2]: 12.4 µM | IC50 (NCI-H460 [3]): 3.77 µM | IC50 [4]: 7.05 µM | IC50 (A549 [5]): 4.14 µM | IC50 (NCI-H661 [6]): 4.19 µM | IC50 (HaCaT [7]): 9.69 µM | IC50 (HeLa): 8.51 µM | viability at 10 µM (NCI-H460 [8]): 86.6% | viability at 10 µM [9]: 89.7% | viability at 10 µM (A549 [10]): 88.2% | viability at 10 µM (NCI-H661 [11]): 89.4% | viability at 24 h, 10 µM [12]: 91% | Activity (NCI-H460 [13]): 0.34% | Activity [14]: 0.16% | Activity (A549 [15]): 2.36% | Activity (NCI-H661 [16]): 0.49% | Activity (HaCaT [17]): 0.5% | Activity (NCI-H460 [18]): 5.1% | Activity [19]: 2.48% | Activity (A549 [20]): 5.62% | Activity (NCI-H661 [21]): 3.39% | Activity (HaCaT [22]): 2.65% | Activity (NCI-H460 [23]): 9.92% | Activity [24]: 7.71% | Activity (A549 [25]): 3.78% | Activity (NCI-H661 [26]): 6.69% | Activity (HaCaT [27]): 5.9% | Activity (NCI-H460 [28]): Active | Activity (HaCaT [29]): Active | Activity (Homo sapiens [30]): Active | Activity (NCI-H460 [31]): Active | Activity (A549 [32]): Active | Activity (NCI-H661 [33]): Active | Activity (Homo sapiens [34]): Active | Activity (HaCaT [35]): Active

CC(C)(C)/[N+]([O-])=C/c1ccc(S(=O)(=O)O)cc1S(=O)(=O)O
IC50 [36]: 1830 µM

COC(=O)/C=C/c1ccc(O)c(O)c1 [METHYLCAFFEATE]
IC50 [1]: 104 µM | IC50 [2]: 113 µM
